US20040209270A1, “Method for identifying macrocyclic polyketides” (priority 2001, published 2004)

System: biosensor E. coli SM 101 (EBZ512, pEBZ511, pEBZ514)
Experiment: Luminescence measurements in the agar-plate diffusion assay with the E. coli biosensor system (luciferase reporter under mph(A) promoter / MphR(A) control)
Assay type: cell-based
Conditions: assay discs, 28° C., 2 to 4 hours or 15 to 24 hours, FIG. 3
Method: The agar-plate diffusion assay was incubated at 28° C. for 2 to 4 hours or 15 to 24 hours and luminescence was recorded using a Berthold Luminograph LB980 (FIGS. 3, 4 and 5). If luminescence is stimulated, it is detectable within a diffusion zone around the sample placed. If the sample assayed has, at the same time, an anti-bacterial activity against the sensor organism, which is noticeable as a zone of inhibition in the very preferred embodiment of the longer incubation, then the stimulation of luminescence is detectable outside this halo of inhibition in the sub-lethal concentration range.
(§1) Agar-plate diffusion assay and luminescence measurements using the E. coli biosensor system. Illustration of the selectivity of the biological sensor component. The numbers given in the information on the test substances indicate the amounts of substance applied in μg.
as §1, with “Exemplary illustration” for “Illustration”, “stimulation of luminescence” for “selectivity”, “component as a function of time.” for “component.”

| SMILES | stimulation of luminescence of the biosensor system |
| --- | --- |
| CC[C@H]1OC(=O)[C@H](C)[C@@H](O[C@H]2C[C@@](C)(OC)[C@@H](O)[C@H](C)O2)[C@H](C)[C@@H](O[C@@H]2O[C@H](C)C[C@H](N(C)C)[C@H]2O)[C@](C)(O)C[C@@H](C)CN(C)[C@H](C)[C@@H](O)[C@]1(C)O [azithromycin] | stimulated |
| O=C(N[C@H](CO)[C@H](O)c1ccc([N+](=O)[O-])cc1)C(Cl)Cl [chloramphenicol] | do not cause a stimulation of luminescence |
| CC[C@H]1OC(=O)[C@H](C)[C@@H](O[C@H]2C[C@@](C)(OC)[C@@H](O)[C@H](C)O2)[C@H](C)[C@@H](O[C@@H]2O[C@H](C)C[C@H](N(C)C)[C@H]2O)[C@](C)(OC)C[C@@H](C)C(=O)[C@H](C)[C@@H](O)[C@]1(C)O [clarithromycin] | indicates |
| CC[C@H]1OC(=O)[C@H](C)[C@@H](O[C@H]2C[C@@](C)(OC)[C@@H](O)[C@H](C)O2)[C@H](C)[C@@H](O[C@@H]2O[C@H](C)C[C@H](N(C)C)[C@H]2O)[C@](C)(O)C[C@@H](C)C(=O)[C@H](C)[C@@H](O)[C@]1(C)O [erythromycin] | indicates |
| C[C@@H]1O[C@@H]1P(=O)(O)O [fosfomycin] | do not cause a stimulation of luminescence |
| CC[C@H]1OC(=O)[C@H](C)[C@@H](O[C@@H]2O[C@H](C)C[C@H](N(C)C)[C@H]2O)[C@@H](C)C[C@@H](C)C(=O)/C=C/[C@]1(C)O [methymycin] | stimulated |
| CC[C@H]1OC(=O)[C@H](C)C(=O)[C@H](C)[C@@H](O[C@@H]2O[C@H](C)C[C@H](N(C)C)[C@H]2O)[C@@H](C)C[C@@H](C)C(=O)/C=C/[C@H]1C [narbomycin] | indicates |
| CO[C@@H]1[C@@H](OC(N)=O)[C@@H](O)[C@H](Oc2ccc3c(O)c(NC(=O)c4ccc(O)c(CC=C(C)C)c4)c(=O)oc3c2C)OC1(C)C [novobiocin] | do not cause a stimulation of luminescence |
| CO[C@H]1C[C@H](O[C@H]2[C@H](C)[C@@H](O[C@@H]3O[C@H](C)C[C@H](N(C)C)[C@H]3O)[C@@H](C)C[C@@]3(CO3)C(=O)[C@H](C)[C@@H](O)[C@@H](C)[C@@H](C)OC(=O)[C@@H]2C)O[C@@H](C)[C@@H]1O [oleandomycin] | indicates |
| CC[C@H]1OC(=O)[C@H](C)C(=O)[C@H](C)[C@@H](O[C@@H]2O[C@H](C)C[C@H](N(C)C)[C@H]2O)[C@@H](C)C[C@@H](C)C(=O)/C=C/[C@]1(C)O [picromycin] | indicates |
| CN[C@H](CC(C)C)C(=O)N[C@H]1C(=O)N[C@@H](CC(N)=O)C(=O)N[C@H]2C(=O)N[C@H]3C(=O)N[C@H](C(=O)N[C@H](C(=O)O)c4cc(O)cc(O)c4-c4cc3ccc4O)[C@H](O)c3ccc(c(Cl)c3)Oc3cc2cc(c3O[C@@H]2O[C@H](CO)[C@@H](O)[C@H](O)[C@H]2O[C@H]2C[C@](C)(N)[C@H](O)[C@H](C)O2)Oc2ccc(cc2Cl)[C@H]1O [vancomycin] | do not cause a stimulation of luminescence |

System: microbial biosensor cell (E. coli biosensor system)
Experiment: Detection of a macrolide-(erythromycin-) producing organism in situ, agar-plate diffusion assay with the biosensor
Assay type: cell-based
Conditions: assay disc or culture-covered agar blocks placed on biosensor suspension in soft agar; FIG. 5
Source text: For this purpose, the microbial biosensor cell was used in the agar-plate diffusion assay. Agar blocks were placed on the biosensor suspension embedded in soft agar. These agar blocks were covered either with Saccharopolyspora erythraea DSM 40517 described as erythromycin producer or with Streptomyces viridochromogenes DSM 40721 described as avilamycin producer. Another agar block contained no growth.
Agar-plate diffusion assay and luminescence measurements using the E. coli biosensor system. In situ stimulation of luminescence by an erythromycin-producing Saccharopolyspora erythraea culture. The number given in the information on the reference substance erythromycin indicates the amount of substance applied in μg.

| SMILES | stimulation of luminescence of the biosensor system |
| --- | --- |
| CC[C@H]1OC(=O)[C@H](C)[C@@H](O[C@H]2C[C@@](C)(OC)[C@@H](O)[C@H](C)O2)[C@H](C)[C@@H](O[C@@H]2O[C@H](C)C[C@H](N(C)C)[C@H]2O)[C@](C)(O)C[C@@H](C)C(=O)[C@H](C)[C@@H](O)[C@]1(C)O [erythromycin] | stimulation of luminescence was detectable |
